Source: PubChem BioAssay (NCI)
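Dose response: 5 concentrations. Exposure: 48 h. Format: 96-well plates. Endpoint: linear interpolation; highest concentration if not reached. TGI is the concentration that stops growth completely.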

Tests used:
Test in all cases: DTP human tumour cell line panel, 48 h
MDA-N = test system: MDA-N
ACHN renal = test system: ACHN renal
DLD-1 colon = test system: DLD-1 colon
DMS 114 small cell lung = test system: DMS 114 small cell lung
KM20L2 colon = test system: KM20L2 colon
DMS 273 small cell lung = test system: DMS 273 small cell lung
HOP-18 NSCLC = test system: HOP-18 NSCLC
SNB-78 CNS = test system: SNB-78 CNS
M19-MEL melanoma = test system: M19-MEL melanoma
XF 498 CNS = test system: XF 498 CNS
LXFL 529 NSCLC = test system: LXFL 529 NSCLC

Structure (SMILES)	TGI (MDA-N) [µM]	TGI (ACHN renal) [µM]	also measured
Cc1cc(=O)oc2cc(SC(=O)N(C)C)ccc12	> 100	> 100	–
Cc1ccc(/C=N/Nc2nc3ccccc3s2)s1	> 100	> 100	–
C1=Nc2ccc(cc2)N=Cc2ccccc2OCc2cccc(n2)COc2ccccc21	> 100	> 100	–
CCOC(=O)CC(=O)C(=O)NNC1=NCCN1	> 100	> 100	–
O=c1cc(-c2ccccc2)oc2cc(OCC(O)COc3ccc4c(=O)cc(-c5ccccc5)oc4c3)ccc12	–	–	TGI (DLD-1 colon): > 100 µM; TGI (DMS 114 small cell lung): > 100 µM; TGI (KM20L2 colon): > 100 µM; TGI (DMS 273 small cell lung): > 100 µM; TGI (HOP-18 NSCLC): > 100 µM; TGI (SNB-78 CNS): 58.9 µM; TGI (M19-MEL melanoma): > 100 µM; TGI (XF 498 CNS): 48.1 µM; TGI (LXFL 529 NSCLC): > 100 µM
COc1ccc(C2=Nn3c(nc4sc(C)c(C)c4c3=O)SC2)cc1	> 100	> 100	–
COc1ccc(CC2c3cc(OC)c(OC)c(OC)c3CC[N+]2(C)C)cc1Oc1ccc(CC2c3cc4c(c(OC)c3CC[N+]2(C)C)OCO4)cc1 (stereo not given)	–	> 100	–
CN(C)CCCNC(=O)c1cc(NC(=O)c2cc(NS(=O)(=O)c3ccc4c(c3)C(=O)c3ccccc3C4=O)cn2C)cn1C	> 100	> 100	–
COc1cccc(C(=O)Nc2c3ccccc3nc3ccccc23)c1OC	> 100	> 100	–
CC1=C(C#N)C23C(=O)c4ccccc4C(O)=C2C(=O)C=CC3(O)N1 (stereo not given)	3.95	19.9	–
CC(=O)OCC1OC(n2c(C#N)cc(=O)[nH]c2=O)CC1OC(C)=O (stereo not given)	> 100	> 100	–
CCC(=O)C1(N2CCOCC2)CCN(CCCC(=O)c2ccc(F)cc2)CC1	> 100	> 100	–
CCSC1=N/C(=C\c2ccco2)C(NN)=N1	> 50	> 50	–
NC(=O)NC(=O)CCC(NS(=O)(=O)c1ccccc1)C(=O)NC(N)=O (stereo not given)	> 100	> 100	–
O=C(Nc1cccc(NC(=O)C(=O)C2CCC3=C(Sc4ccccc4N3)C2=O)n1)C(=O)C1CCC2=C(Sc3ccccc3N2)C1=O (stereo not given)	> 100	> 100	–
C=C1[C@H](OC(=O)C(C)C)[C@@H](OC(C)=O)[C@@H](OC(C)=O)C(C)(C)[C@@H]2O[C@H]2[C@@H](C)C(=O)[C@@]2(OC(C)=O)C[C@@](C)(OC(C)=O)[C@H](OC(C)=O)[C@@H]2[C@H]1OC(C)=O	> 100	> 100	–
CC(C)(C)OC(=O)[C@@H]1CCC(=S)N1Cc1ccccc1	> 100	> 100	–
CCOC(=O)/C(C=Nc1c(C)n(C)n(-c2ccccc2)c1=O)=C(/O)c1ccccc1	> 100	> 100	–
CN(C)C(=S)N1C(=S)N(c2ccccc2)C(=Nc2ccccc2)C1=Nc1ccccc1	> 100	> 100	–
CC1=C(C)CC(C#N)(C#N)C(C#N)(C#N)C1	> 7.22	> 10	–
NC1OC(COC(=O)c2ccccc2)C(O)C(OC(=O)c2ccccc2)C1OC(=O)c1ccccc1 (stereo not given)	46.5	56	–
Cc1cc(N)ccc1N=Nc1ccc(S(=O)(=O)CCOS(=O)(=O)O)cc1	0.755	14.4	–
Nc1ccc(Oc2ccc(C3(c4ccc(Oc5ccc(N)cc5)cc4)C4CC5C6CC7CC5C3C(C7)C6C4)cc2)cc1	> 100	> 100	–

Structure (SMILES)	TGI (MDA-N) [µM]	TGI (ACHN renal) [µM]	also measured
COc1ccc(/C=N/n2c(=O)[nH]c3ccccc3c2=O)cc1	> 100	> 100	–
Cc1ccc2nc(N/N=C/c3ccc(C)s3)cc(C)c2c1	20.4	24.1	–
CCCc1cc(=O)oc2c(C=O)c(O)cc(O)c12	75.6	86.7	–
C=CC(CBr)CCC(Br)C(C)(C)Br (stereo not given)	> 10	> 10	–
CC(=O)OCc1ccc2oc(=O)c(C(=O)Oc3cccc(Cl)c3)cc2c1	> 100	> 100	–
C=C(C)CNC(=S)N(N)c1ccc(OC)cc1	> 100	> 100	–
O=C(NO)c1ccc(OCc2cccc(Cl)c2)cc1	35.4	25	–
CC1(C)Oc2ccc3c(=O)c(-c4ccccc4)c(-c4ccccc4)oc3c2C1C(=O)O (stereo not given)	> 100	–	–
Cc1c(-c2ccccc2)[nH]c2ccc(Cl)cc2c1=O	54.6	> 100	–
CC(C)/C(Cl)=N/OC(=O)Nc1cccc(C(F)(F)F)c1	23.7	3.06	–
Cc1nn2c(=O)c([N+](=O)[O-])c(/C=C/c3ccco3)nc2s1	76.5	> 100	–
CCOC(=O)C[C@@H](C)[C@]1(C(=O)OC)CCCC1=O	–	> 100	TGI (DLD-1 colon): > 71.3 µM; TGI (DMS 114 small cell lung): > 58.9 µM; TGI (KM20L2 colon): > 100 µM; TGI (DMS 273 small cell lung): > 100 µM; TGI (HOP-18 NSCLC): > 100 µM; TGI (SNB-78 CNS): > 100 µM; TGI (M19-MEL melanoma): > 100 µM; TGI (XF 498 CNS): > 100 µM; TGI (LXFL 529 NSCLC): > 100 µM
CN(C)CC1CCCC(CN2CCCCC2)C1=O (stereo not given)	27.5	13.6	TGI (DLD-1 colon): 8.92 µM; TGI (DMS 114 small cell lung): > 23.4 µM; TGI (KM20L2 colon): 41.6 µM; TGI (DMS 273 small cell lung): 54.9 µM; TGI (HOP-18 NSCLC): 4.71 µM; TGI (SNB-78 CNS): 23.9 µM; TGI (M19-MEL melanoma): 34.7 µM
O=C(/C=C/c1ccc(O)c(O)c1)OCc1ccccc1	> 100	40.7	–
CCCCCN1CCN(c2ncccn2)CC1	> 100	> 100	–
N=c1oc2c(Br)cc(Br)cc2cc1C(=O)Nc1ccccn1	> 100	> 100	–
O=C(Nc1cc2c(=O)[nH]c3ccccc3c2oc1=O)c1cnccn1	> 100	> 100	–
COc1ccc(/C=N/N=C(\N)NO)c(Cl)c1O	–	> 100	TGI (DLD-1 colon): > 100 µM; TGI (DMS 114 small cell lung): > 100 µM; TGI (HOP-18 NSCLC): 54.2 µM; TGI (SNB-78 CNS): > 100 µM; TGI (M19-MEL melanoma): 53.3 µM; TGI (LXFL 529 NSCLC): > 100 µM
COc1ccc2oc(=Nc3ccccc3)c(C(N)=O)cc2c1	> 100	42	–
CC1=CC=C2c3ccccc3C=CN2C(=O)C1	> 100	> 100	–
O=C1C=CC(=O)c2c1cc([N+](=O)[O-])c1ccoc21	35.4	3.4	–
O=c1[nH]c(=O)n(C2OC(CO)C(O)C2O)c2ncc(-c3ccc(-c4ccccc4)cc3)nc12 (stereo not given)	> 20	> 20	–
